From the NIST ThermoML archive (doi:10.1007/s10765-010-0861-2)
Numbers after ± are expanded uncertainties.

Experiments:
[1] = 101.33 kPa, Liquid; for mass density: Pycnometric method
[2] = xn = mol fraction of the nth substance listed; settings: 308.15 K, 101 kPa, Liquid, Frequency=2 MHz

O=C1CCCN1 [2-pyrrolidinone]
mass density ([1]; 298.15 K): 1107.26 ± 1.6 kg/m3
speed of sound ([1]; 308.15 K): 1603 ± 7 m/s

c1ccccc1 [benzene]
speed of sound ([1]; 298.15 K): 1298 ± 6 m/s
mass density ([1]; 298.15 K): 873.62 ± 1.1 kg/m3

c1ccccc1 [benzene] + CCCO
speed of sound ([2]; x1 = 0.0852): 1192 ± 6 m/s
speed of sound ([2]; x1 = 0.1733): 1196 ± 6 m/s
speed of sound ([2]; x1 = 0.2644): 1200 ± 6 m/s
speed of sound ([2]; x1 = 0.3059): 1201 ± 6 m/s
speed of sound ([2]; x1 = 0.3586): 1203 ± 6 m/s
speed of sound ([2]; x1 = 0.3995): 1204 ± 6 m/s
speed of sound ([2]; x1 = 0.4561): 1206 ± 6 m/s
speed of sound ([2]; x1 = 0.5274): 1208 ± 6 m/s
speed of sound ([2]; x1 = 0.582): 1210 ± 6 m/s
speed of sound ([2]; x1 = 0.6618): 1213 ± 6 m/s
speed of sound ([2]; x1 = 0.7267): 1216 ± 6 m/s
speed of sound ([2]; x1 = 0.7703): 1219 ± 6 m/s
speed of sound ([2]; x1 = 0.883): 1233 ± 6 m/s
speed of sound ([2]; x1 = 0.9335): 1242 ± 6 m/s

CCCO [propan-1-ol]
speed of sound ([1]; 298.15 K): 1188 ± 6 m/s
mass density ([1]; 298.15 K): 799.28 ± 0.9 kg/m3

Cc1ccccc1 [toluene]
speed of sound ([1]; 298.15 K): 1305 ± 6 m/s
mass density ([1]; 298.15 K): 862.23 ± 1 kg/m3

Cc1ccccc1 [toluene] + CCCO
speed of sound ([2]; x1 = 0.0724): 1193 ± 6 m/s
speed of sound ([2]; x1 = 0.1494): 1199 ± 6 m/s
speed of sound ([2]; x1 = 0.2314): 1204 ± 6 m/s
speed of sound ([2]; x1 = 0.319): 1209 ± 6 m/s
speed of sound ([2]; x1 = 0.3586): 1211 ± 6 m/s
speed of sound ([2]; x1 = 0.4352): 1216 ± 6 m/s
speed of sound ([2]; x1 = 0.5131): 1220 ± 6 m/s
speed of sound ([2]; x1 = 0.5724): 1224 ± 6 m/s
speed of sound ([2]; x1 = 0.6211): 1227 ± 6 m/s
speed of sound ([2]; x1 = 0.6846): 1231 ± 6 m/s
speed of sound ([2]; x1 = 0.7376): 1235 ± 6 m/s
speed of sound ([2]; x1 = 0.7829): 1239 ± 6 m/s
speed of sound ([2]; x1 = 0.8635): 1247 ± 6 m/s
speed of sound ([2]; x1 = 0.9243): 1253 ± 6 m/s
